The text below walks through data of patent US11779625B2, “Composition and application thereof in preparing product for protecting mitochondria” (INFINITUS (CHINA) COMPANY LTD., priority 2021, dated 2023).

The structures appear in SMILES notation. Entries after “also recorded” stand apart in the source; their conditions may differ.

The subject of data set [1] is Slc25a46−/− mouse embryonic fibroblasts. The data set can be described thus: MTT in-vitro cytotoxicity experiment (cell morphology and viability), Slc25a46−/− cells. Particulars: 24 hours; for effect on cell viability/growth (MTT): Slc25a46−/− cells. Type of data set: cell-based. How it is done:
(§1) The MEF cells were derived from wild-type fetal mice (WT) and Slc25a46 homozygous fetal mice (Slc25a46−/−). Pregnant mice were anesthetized and killed, and dissected to obtain mouse embryos, and bodies of fetal mice were obtained, and washed with PBS for 3 times. Clean mouse embryonal tissues were transferred into a culture dish, and cut into pieces, 2 mL of trypsin was added into the tissue pieces, and continuously cut into pieces for several minutes. Then, 5 mL of trypsin was added into the culture dish above, and blown up and down with a straw vigorously, and the culture dish was put into an incubator for incubation for 20 minutes to 30 minutes. The tissues cut into pieces were taken out of the incubator, and added with about 20 mL of MEF medium. A tissue mixture was transferred into each flask and placed into an incubator for overnight incubation. Then, growth of fibroblasts was observed regularly and the culture medium was replaced. When the fibroblasts covered 90% of the culture flask, the mouse embryonic fibroblasts were collected for subsequent experiment.
(§2) 100 uL of WT mouse cells and Slc25a46−/− mouse cells with a cell concentration of 3.5×10^5 cells/mL were inoculated into a 96-well plate, and cultured in a CO2 incubator at 37° C. for 24 hours. […] An absorbance at 570 nm was detected with a multi-functional microplate scanner, and effects of test solutions with different concentrations on cell viability were calculated with a blank control as 100%.

Data set [2] has as its system Slc25a46−/− mice. In words: SOD enzyme activity in liver tissues after intragastric intervention. Type of data set: in vivo, mouse. The following applies: intragastric every day for 10 days, Example 400, Comparative example 1 100, 2 244, 3 56, 4 500 mg/kg. How it is done: Animal experimental subjects were Slc25a46 knockout (Slc25a46−/−) mice of 1 month old, which were divided into a blank solvent control group (3 mice) and experimental groups (4 mice in each group). Under a same SPF level, the mice were fed with a full-nutrient feed prepared according to an AIN93G formula of Jiangsu Xietong Biology Co., Ltd., and subjected to intragastric administration every day, which lasted for a period of 10 days. […] The blank solvent control group was administered intragastrically with solvent water. After the intragastric administration experiment, brain tissues and liver tissues of the mice were collected for physiological and biochemical detections respectively, and an oxidative stress level and an ability of delaying aging were analyzed.
9 times volume of ice normal saline was added according to a ratio of a tissue weight (g) to a tissue volume (ml) of 1:9, and the tissues were cut into pieces with a surgical scissor, prepared into 10% tissue homogenate with a homogenizer (the homogenation lasted 10 seconds once, and was continuously carried out for 3 times to 5 times at intervals of 5 seconds on ice), and centrifuged at 2500 rpm to 3000 rpm for 10 minutes. A supernatant was taken for subsequent determination. […]

In data set [3] the test system is WT mouse embryonic fibroblasts. The data set can be described thus: MTT in-vitro cytotoxicity experiment (cell morphology and viability), WT cells. The following applies: 24 hours; for effect on cell viability/growth (MTT): WT cells. Type of data set: cell-based. How it is done: as §1, §2
Data set [4] relates to Slc25a46−/− mice. In words: NAMPT enzyme activity in liver tissues (ELISA kit). Particulars: intragastric every day for 10 days, Example 400, Comparative example 1 100, 2 244, 3 56, 4 500 mg/kg. Type of data set: in vivo, mouse. (In an ELISA, binding on a coated surface is turned into a signal by an enzyme label.)
Procedure: A certain amount of liver tissues of the mice were homogenized, and a supernatant was taken. […] Marker wells, blank wells and sample wells were provided, 50 μL of markers with different concentrations were added into the marker wells, 50 μL of to-be-tested sample was added into the sample wells, and 50 μL of sample diluent was added into the blank wells. […] 50 μL of substrate A and 50 μL of substrate B were respectively added into each well, and an OD value of each well at a wavelength of 450 nm was measured within 15 minutes. Data was recorded, and statistical analysis was made with Prism software.
Where [5] appears, read: high concentration (1,000 μg/mL to 2,000 μg/mL).

Consider `NC(=O)c1cccnc1` [Comparative example 4, nicotinamide], for which the “effect on cell morphology” value is “no effect on the cell morphology” in data set [1] (Slc25a46−/− MEF cells, up to 2,000 μg/mL) and “no effect on the cell morphology” in data set [3] (WT MEF cells, up to 2,000 μg/mL). Besides, the “effect on cell viability/growth (MTT)” value in data set [1] (125 μg/mL to 2,000 μg/mL) is “no effect on the viability of the Slc25a46−/− cells and a viability of the WT cells”; in data set [1] (setting [5]), “promotes growth of the Slc25a46−/− cells and the WT cells, without a concentration effect”; in data set [3] (125 μg/mL to 2,000 μg/mL) it was “no effect on the viability of the Slc25a46−/− cells and a viability of the WT cells”; in data set [3] (setting [5]), “promotes growth of the Slc25a46−/− cells and the WT cells, without a concentration effect; also recorded: promote proliferation of the WT cells”. Moreover, the “SOD enzyme activity-Liver tissue” value in the data set on Slc25a46−/− mice [2] is given as 2.22 ± 0.02 U/mgprot. In addition, the “NAMPT enzyme activity-Liver tissue” value with Slc25a46−/− mice [4] amounted to 0.32 ± 0.01 ng/mg protein.
